This is an account of results in publication PMC7587356, “High-Throughput Screening for Inhibitors of the SARS-CoV-2 Protease Using a FRET-Biosensor” (Molecules, 2020).

Where a name gives a salt, the structure may show the parent alone. Read-outs that look alike come from different tables or passages of the source.

This test has as its target SARS-CoV-2 3CLpro (Severe acute respiratory syndrome coronavirus 2, UniProt P0DTD1). Kind of test: biochemical. Set-up: Replicate_1 / Replicate_2 / mean / mean (LOPAC_screen_w_protease): unit not given here. Type of test: biochemical. The conditions noted are these: for inhibition at 5 µM: 4 h.
Setting [1] is: sheet LOPAC_screen_w_protease, primary screen of LOPAC1280 at 5 µM with protease, mean of the two replicates, read-out: mean.
Where [2] appears, read: sheet LOPAC_screen_w_protease, primary screen of LOPAC1280 at 5 µM with protease, replicate 1, read-out: Replicate_1.
The mark [3] stands for this setting: sheet LOPAC_screen_w_protease, primary screen of LOPAC1280 at 5 µM with protease, replicate 2, read-out: Replicate_2.
Setting [4] is: sheet LOPAC_screen_w_protease, primary screen with protease, 5 µM, mean of two replicates.
[5] abbreviates: sheet LOPAC_screen_w_protease, primary screen with protease, 5 µM, replicate 1.
Where [6] appears, read: sheet LOPAC_screen_w_protease, primary screen with protease, 5 µM, replicate 2.
[7] abbreviates: LOPAC1280 primary screen with protease, 5 µM compound, mean of two replicates.
[8] abbreviates: LOPAC1280 primary screen with protease, 5 µM compound, replicate 1.
[9] abbreviates: LOPAC1280 primary screen with protease, 5 µM compound, replicate 2.
Where [10] appears, read: sheet LOPAC_screen_w_protease, LOPAC1280 primary screen at 5 µM, with protease, mean of the two replicates, read-out: mean.
[11] abbreviates: sheet LOPAC_screen_w_protease, LOPAC1280 primary screen at 5 µM, with protease, replicate 1, read-out: Replicate_1.
Where [12] appears, read: sheet LOPAC_screen_w_protease, LOPAC1280 primary screen at 5 µM, with protease, replicate 2, read-out: Replicate_2.
Where [13] appears, read: LOPAC1280 primary screen with protease, 5 µM compound, mean of the two replicates.
Setting [14] is: sheet LOPAC_screen_w_protease, LOPAC1280 at 5 µM, mean of two replicates, read-out: mean.
Where [15] appears, read: sheet LOPAC_screen_w_protease, LOPAC1280 at 5 µM, replicate 1, read-out: Replicate_1.
Where [16] appears, read: sheet LOPAC_screen_w_protease, LOPAC1280 at 5 µM, replicate 2, read-out: Replicate_2.
The mark [17] stands for this setting: LOPAC1280 primary screen with protease, 5 µM compound, replicate 1, read-out: Replicate_1 (LOPAC_screen_w_protease).
Where [18] appears, read: LOPAC1280 primary screen with protease, 5 µM compound, replicate 2, read-out: Replicate_2 (LOPAC_screen_w_protease).
[19] abbreviates: sheet LOPAC_screen_w_protease, LOPAC1280 primary screen at 5 µM, with protease, mean of the two replicates.
The mark [20] stands for this setting: sheet LOPAC_screen_w_protease, LOPAC1280 primary screen at 5 µM, with protease, replicate 1.
The mark [21] stands for this setting: sheet LOPAC_screen_w_protease, LOPAC1280 primary screen at 5 µM, with protease, replicate 2.

For `CN(C)CCCN1c2ccccc2Sc2ccccc21` [Promazine hydrochloride], the inhibition at 5 µM is, setting by setting: (sheet LOPAC_screen_w_protease, primary screen with protease, 5 µM, mean of two replicates, read-out: mean) -0.303%; (sheet LOPAC_screen_w_protease, primary screen with protease, 5 µM, replicate 1, read-out: Replicate_1) -0.0432%; (sheet LOPAC_screen_w_protease, primary screen with protease, 5 µM, replicate 2, read-out: Replicate_2) -0.563%.
On to `CCn1cc(C(=O)O)c(=O)c2ccc(Cc3ccccc3)nc21` [Amfonelic acid], for which the inhibition at 5 µM reads like this: under setting [1], 3.23%; under setting [2], 4.99%; under setting [3], 1.47%.
With `CCN(CC)CCCCCCCCOC(=O)c1cc(OC)c(OC)c(OC)c1.Cl` [TMB-8 hydrochloride], the mean under setting [4] is recorded as -0.545. This compound registered a Replicate_1 under setting [5] of 0.4949. Besides, the Replicate_2 under setting [6] is recorded as -1.585.
For the compound `CC(=O)NCCc1c[nH]c2ccc(O)cc12` [N-Acetyl-5-hydroxytryptamine], the “mean (LOPAC_screen_w_protease)” value under setting [7] is reported as 1.513. Besides, under setting [8], the “Replicate_1 (LOPAC_screen_w_protease)” value amounted to 1.947. For the same compound, the “Replicate_2 (LOPAC_screen_w_protease)” value under setting [9] is 1.078.
Regarding `N#CC(C#N)=Cc1ccc([N+](=O)[O-])c(O)c1` [Tyrphostin AG 126], the mean (sheet LOPAC_screen_w_protease, primary screen with protease, mean of two replicates) worked out at 2.288. This compound also gave a Replicate_1 (sheet LOPAC_screen_w_protease, primary screen with protease, replicate 1) of 2.273. Where the note is “sheet LOPAC_screen_w_protease, primary screen with protease, replicate 2”, this compound registered a Replicate_2 of 2.303.
On to `COc1ccc(Cl)cc1C(=O)NCCc1ccc(S(=O)(=O)NC(=O)NC2CCCCC2)cc1` [Glibenclamide], for which the inhibition at 5 µM is 0.733% under setting [10], 1.31% under setting [11] and 0.155% under setting [12].
On to `Nc1cc(N2CCCCC2)nc(N)[n+]1[O-]` [Minoxidil], for which the inhibition at 5 µM reads like this: (sheet LOPAC_screen_w_protease, primary screen with protease, compound at 5 µM, mean of two replicates, read-out: mean) 2.95%; (sheet LOPAC_screen_w_protease, primary screen with protease, compound at 5 µM, replicate 1, read-out: Replicate_1) 3.92%; (sheet LOPAC_screen_w_protease, primary screen with protease, compound at 5 µM, replicate 2, read-out: Replicate_2) 1.98%.
`Cl.N=C(N)NC(=N)Nc1cccc(Cl)c1`: the “mean (LOPAC_screen_w_protease)” value under setting [13] was determined as 1.751. Besides, the “Replicate_1 (LOPAC_screen_w_protease)” value under setting [8] is 2.329. Also, the “Replicate_2 (LOPAC_screen_w_protease)” value under setting [9] is recorded as 1.173.
As to `O=c1[nH]c2ccccc2n1CCCN1CCN(C(c2ccccc2)c2ccccc2)CC1` [Oxatomide], the inhibition at 5 µM reads like this: (sheet LOPAC_screen_w_protease, LOPAC1280 primary screen with protease, 5 µM compound, mean of the two replicates, read-out: mean) 5.24%; (sheet LOPAC_screen_w_protease, LOPAC1280 primary screen with protease, 5 µM compound, replicate 1, read-out: Replicate_1) 4.62%; (sheet LOPAC_screen_w_protease, LOPAC1280 primary screen with protease, 5 µM compound, replicate 2, read-out: Replicate_2) 5.86%.
In the case of `Cl.c1ccc(CN(CC2=NCCN2)c2ccccc2)cc1` [Antozoline hydrochloride], the mean (sheet LOPAC_screen_w_protease, primary screen of LOPAC1280 at 5 µM with protease, mean of the two replicates) worked out at 3.208. Besides, the Replicate_1 (sheet LOPAC_screen_w_protease, primary screen of LOPAC1280 at 5 µM with protease, replicate 1) was 3.9302. Besides, under “sheet LOPAC_screen_w_protease, primary screen of LOPAC1280 at 5 µM with protease, replicate 2”, the Replicate_2 worked out at 2.486.
As to `Cl.NCCCCC(=O)O` [5-Aminovaleric acid hydrochloride], the mean under setting [4] is reported as 0.3592. The compound also displayed a Replicate_1 under setting [5] of 0.7789. Also, the Replicate_2 under setting [6] was -0.06046.
As for `CC(=O)Oc1cc(C(C)C)c(OCCN(C)C)cc1C` [Moxisylyte hydrochloride], the inhibition at 5 µM under setting [1] was determined as 3.55%, the inhibition at 5 µM under setting [2] was 4.09% and the inhibition at 5 µM under setting [3] came to 3.01%.
For `O=C(C1CCCCC1)N1CC(=O)N2CCc3ccccc3C2C1` (stereo not drawn) [Praziquantel], in that order: 3.73%, 3.31% and 4.15%.
As for `CN(Cc1cnc2nc(N)nc(N)c2n1)c1ccc(C(=O)N[C@@H](CCC(=O)O)C(=O)O)cc1` [(-)Amethopterin], the “mean (LOPAC_screen_w_protease)” value under setting [13] amounted to 2.014. Moreover, under setting [8], the “Replicate_1 (LOPAC_screen_w_protease)” value was determined as 2.356. Besides, the “Replicate_2 (LOPAC_screen_w_protease)” value under setting [9] stood at 1.671.
As to `CCN(CC)CCNC(=O)c1cc(S(C)(=O)=O)ccc1OC` [Tiapride hydrochloride], the inhibition at 5 µM runs as follows: under setting [14], 1.21%; under setting [15], 1.45%; under setting [16], 0.964%.
The matching figures for `CN(C)CCCO[C@@H]1[C@H]2OC(C)(C)O[C@H]2O[C@@H]1[C@H](O)CO` [Amiprilose hydrochloride]: 1.08%, 1.63% and 0.526%.
Regarding `COc1ccc(CC(C)NCC(O)c2ccc(O)c(NC=O)c2)cc1` (stereo not drawn) [Formoterol], the inhibition at 5 µM by setting is: under setting [17], 1.5%; under setting [18], 1.19%. Besides, the “mean (LOPAC_screen_w_protease)” value under setting [7] is given as 1.3452.
With `Nc1c(S(=O)(=O)O)cc(Nc2ccc(Nc3nc(Cl)nc(Nc4cccc(S(=O)(=O)O)c4)n3)c(S(=O)(=O)O)c2)c2c1C(=O)c1ccccc1C2=O` [Reactive Blue 2], the inhibition at 5 µM by setting is: under setting [10], 0.827%; under setting [11], -0.139%; under setting [12], 1.79%.
Take `C[C@H](O)C(=O)C1=Nc2c(nc(N)[nH]c2=O)NC1` [Sepiapterin]: the inhibition at 5 µM is 2.57% (sheet LOPAC_screen_w_protease, primary screen with protease, mean of two replicates, read-out: mean); 2.59% (sheet LOPAC_screen_w_protease, primary screen with protease, replicate 1, read-out: Replicate_1); 2.55% (sheet LOPAC_screen_w_protease, primary screen with protease, replicate 2, read-out: Replicate_2).
As for `CCCn1c(=O)c2[nH]c(-c3ccc(S(=O)(=O)O)cc3)nc2n(CCC)c1=O` [1,3-Dipropyl-8-p-sulfophenylxanthine], the “mean (LOPAC screen with protease)” value (sheet LOPAC_screen_w_protease, primary screen at 5 µM, mean of two replicates) is reported as 7.8949. Moreover, the “Replicate_1 (LOPAC screen with protease)” value (sheet LOPAC_screen_w_protease, primary screen at 5 µM, replicate 1) is 7.582. For the same compound, the “Replicate_2 (LOPAC screen with protease)” value (sheet LOPAC_screen_w_protease, primary screen at 5 µM, replicate 2) is recorded as 8.208.
Compound `Cl.Cl.Clc1cccc(N2CCNCC2)c1` came in with a mean under setting [19] of 0.4258. Besides, under setting [20], the Replicate_1 is recorded as 0.3435. Moreover, the Replicate_2 under setting [21] is reported as 0.5081.
As to `OC[C@H]1NC[C@@H](O)[C@@H]1O` [1,4-Dideoxy-1,4-imino-D-arabinitol], the “mean (LOPAC_screen_w_protease)” value under setting [7] stood at 1.627. For the same compound, the “Replicate_1 (LOPAC_screen_w_protease)” value under setting [8] was 1.388. In addition, under setting [9], the “Replicate_2 (LOPAC_screen_w_protease)” value worked out at 1.866.
As for `CN/C(=N/CCSCc1nc[nH]c1C)NC#N` [Cimetidine], the inhibition at 5 µM came out at 1.76% (read-out: Replicate_1), 2.91% (read-out: Replicate_2) and 2.34% (read-out: mean).
For `COc1ccc(/C=C/C(=O)Nc2ccccc2C(=O)O)cc1OC` [Tranilast], in that order: 0.566%, -2.13% and -0.784%.
In the case of `O=C(O)/C=C\C(=O)O.c1cnc(N2CCN(Cc3ccc4c(c3)OCO4)CC2)nc1` [Piribedil maleate], under setting [19], the mean is 0.4342. Further, under setting [20], the Replicate_1 is -0.05723. Besides, the Replicate_2 under setting [21] was 0.9256.
`CNc1cc(NS(=O)(=O)c2ccc(N)cc2)nc(NC)n1.Cl.Cl` [Ro 04-6790 dihydrochloride] had a mean (sheet LOPAC_screen_w_protease, LOPAC1280 at 5 µM, mean of two replicates) of 0.9819. Moreover, the Replicate_1 (sheet LOPAC_screen_w_protease, LOPAC1280 at 5 µM, replicate 1) was -0.4861. This compound had a Replicate_2 (sheet LOPAC_screen_w_protease, LOPAC1280 at 5 µM, replicate 2) of 2.45.
Turning to `Cl.NC1C=CC=C(C(=O)O)C1` (stereo not drawn) [Gabaculine hydrochloride], the “mean (LOPAC_screen_w_protease)” value under setting [13] is recorded as 2.074. Also, under setting [8], the “Replicate_1 (LOPAC_screen_w_protease)” value amounted to 1.548. Moreover, the “Replicate_2 (LOPAC_screen_w_protease)” value under setting [9] worked out at 2.6.
Under setting [19], `Cl.NCC#Cc1ccccc1` [3-Phenylpropargylamine hydrochloride] showed a mean of 0.744. Under setting [20], this compound had a Replicate_1 of 1.313. Also, the Replicate_2 under setting [21] is 0.1753.
Regarding `O=[N+]([O-])c1cccc2c(Br)n[nH]c12` [3-Bromo-7-nitroindazole], the “mean (LOPAC_screen_w_protease)” value under setting [13] was determined as 1.829. Further, under setting [8], the “Replicate_1 (LOPAC_screen_w_protease)” value is recorded as 2.045. Also, under setting [9], the “Replicate_2 (LOPAC_screen_w_protease)” value was determined as 1.613.
For the compound `CC(C[N+](C)(C)C)OC(N)=O` (stereo not drawn) [Bethanechol chloride], the inhibition at 5 µM was found to be 0.465% under setting [17] and 2.25% under setting [18]. Also, the “mean (LOPAC_screen_w_protease)” value under setting [7] came to 1.356.
